One data set concerns the target T1, hPPAR δ (LBD) (Homo sapiens, UniProt Q03181).
T1 construct: A receptor expression plasmid (pSG5-GAL4-hPPAR α or γ or δ (LBD)); GAL4 (fusion partner); expressed in transfected cells; host or cells: CV-1 cells (ATCC)
T1 sequence (Q03181 211-439 limits assumed): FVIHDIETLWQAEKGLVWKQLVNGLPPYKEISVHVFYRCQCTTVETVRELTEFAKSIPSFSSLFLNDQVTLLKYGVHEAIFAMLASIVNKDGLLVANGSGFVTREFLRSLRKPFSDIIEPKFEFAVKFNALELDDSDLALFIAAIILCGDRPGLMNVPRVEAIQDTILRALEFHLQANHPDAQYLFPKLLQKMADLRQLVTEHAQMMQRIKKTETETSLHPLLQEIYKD
Nature of the data set: GAL4-hPPAR δ (LBD) luciferase reporter transactivation in CV-1 cells. The data set is classed as cell-based. The note with it: relative to 100% of GW-501516 at 10^−7 M. The method, then: For determining PPARδ activating effect of the compounds according to the invention, PPARδ activating effects of test compounds (compounds of Examples) were measured by the following method:
(§1) A receptor expression plasmid (pSG5-GAL4-hPPAR α or γ or δ (LBD)), a luciferase expression plasmid (pUC8-MH100x4-TK-Luc) and β-galactosidase expression plasmid (pCMX-β-GAL) (Kliewer, S. A., et. al., (1992) Nature, 358:771-774) are transfected into CV-1 cells (ATCC). After gene transfer utilizing a lipofection reagent DMRIE-C or Lipofectamin 2000 (Invitrogen), it is incubated for 42 hours in the presence of the test compound. Then, the luciferase activity and β-GAL activity are measured on the soluble cells. The luciferase activity is calibrated by the β-GAL activity. A relative ligand activity is calculated for each of the PPARα, γ and δ under the following conditions: a relative activity of PPAR α is calculated in consideration of a luciferase activity (assigned to 100%) of cells treated with the compound described in Example 2 of the aforementioned Patent Publication 4 (PPARα-selective agonist); a relative activity of PPAR γ is calculated in consideration of a luciferase activity (assigned to 100%) cells treated with Rosiglitazone; and a relative activity of PPAR δ is calculated in consideration of a luciferase activity (assigned to 100%) of cells treated with GW-501516. See the below-described Examples 22 and 23.
(§2) The PPARδ activating effects of test compounds (compounds of Examples) were measured by the following method:
as §1, with “(pUC8-MH100x-4-TK-Luc)” for “(pUC8-MH100x4-TK-Luc)”, “approx. 40” for “42”, “PPAR α,” for “PPARα,”, “GW-501516.” for “GW-501516. See the below-described Examples 22 and 23.”
(§3) The experimental results Table 28 were obtained by procedures similar to the procedures for pharmacological experimental described in Example 22.

Another data set deals with T2, hPPAR γ (LBD) (Homo sapiens, UniProt P37231).
T2 construct: A receptor expression plasmid (pSG5-GAL4-hPPAR α or γ or δ (LBD)); GAL4 (fusion partner); expressed in transfected cells; host or cells: CV-1 cells (ATCC)
T2 sequence (P37231 238-503 limits assumed): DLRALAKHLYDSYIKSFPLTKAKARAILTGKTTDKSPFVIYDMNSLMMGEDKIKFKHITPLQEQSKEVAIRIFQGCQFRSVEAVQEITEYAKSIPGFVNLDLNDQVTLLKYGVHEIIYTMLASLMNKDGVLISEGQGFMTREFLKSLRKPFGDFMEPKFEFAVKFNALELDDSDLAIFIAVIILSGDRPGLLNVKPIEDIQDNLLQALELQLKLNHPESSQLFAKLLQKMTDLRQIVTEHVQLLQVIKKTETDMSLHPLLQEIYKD
Nature of the data set: GAL4-hPPAR γ (LBD) luciferase reporter transactivation in CV-1 cells. The data set is classed as cell-based. On the set-up: key: IA: inactive. The note with it: relative to 100% of Rosiglitazone at 10^−5 M. The method, then: as §1, §2
as §1, with “(pUC8-MH100x-4-TK-Luc)” for “(pUC8-MH100x4-TK-Luc)”, “approx. 40” for “42”, “PPAR α,” for “PPARα,”, “GW-501516.” for “GW-501516. See the below-described Examples 22 and 23.”
as §3
On the technique in general: A reporter such as luciferase makes a cellular process visible.

In the next data set the target is T3, hPPAR α (LBD) (Homo sapiens, UniProt Q07869).
T3 construct: A receptor expression plasmid (pSG5-GAL4-hPPAR α or γ or δ (LBD)); GAL4 (fusion partner); expressed in transfected cells; host or cells: CV-1 cells (ATCC)
T3 sequence (Q07869 239-466 limits assumed): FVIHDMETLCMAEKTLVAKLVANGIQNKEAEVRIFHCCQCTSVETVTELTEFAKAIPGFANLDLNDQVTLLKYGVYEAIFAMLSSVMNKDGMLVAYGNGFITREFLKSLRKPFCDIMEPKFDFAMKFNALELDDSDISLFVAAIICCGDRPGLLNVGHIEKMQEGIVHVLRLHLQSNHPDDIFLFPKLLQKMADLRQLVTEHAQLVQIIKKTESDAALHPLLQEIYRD
Nature of the data set: GAL4-hPPAR α (LBD) luciferase reporter transactivation in CV-1 cells. In kind it is cell-based. Also noted: key: IA: inactive. The note with it: relative to 100% of compound of Example 2 of Patent Publication 4 at 10^−6 M. The method, then: as §1, §2
as §1, with “(pUC8-MH100x-4-TK-Luc)” for “(pUC8-MH100x4-TK-Luc)”, “approx. 40” for “42”, “PPAR α,” for “PPARα,”, “GW-501516.” for “GW-501516. See the below-described Examples 22 and 23.”
as §3

Where [1] appears, read: test compound 10^−7 M (Examples 5, 8 and 10).
Where [2] appears, read: test compound 10^−7 M (Examples 8 and 10).
Where [3] appears, read: Table 28, test compound 10^−6 M.

In the case of `Cc1cc(C(=O)CCc2cn(-c3ccc(C(F)(F)F)cc3)nc2C(C)C)ccc1OC(C)(C)C(=O)O` [Example 1, 2-[4-[3-[3-Isopropyl-1-(4-trifluoromethylphenyl)-1H-pyrazol-4-yl]propionyl]-2-methylphenoxy]-2-methylpropionic acid], the “PPAR activity (%) δ” value at hPPAR δ (LBD) (test compound 10^−6 M) turned out to be 87%. In addition, the “PPAR activity (%) γ” value on hPPAR γ (LBD) (test compound 10^−6 M) was 7%. The “PPAR activity (%) α” value at hPPAR α (LBD) (test compound 10^−6 M) is 62%.

In the case of `Cc1cc(C(=O)CCc2cn(-c3ccc(C(F)(F)F)cc3)nc2C(C)C)ccc1OCC(=O)O` [Example 2, 4-[3-[3-Isopropyl-1-(4-trifluoromethylphenyl)-1H-pyrazol-4-yl]propionyl]-2-methylphenoxyacetic acid], the “PPAR activity (%) δ” value on hPPAR δ (LBD) (test compound 10^−6 M) is listed as 76%. Moreover, on hPPAR γ (LBD) (test compound 10^−6 M), the “PPAR activity (%) γ” value was “IA”. Also, at hPPAR α (LBD) (test compound 10^−6 M), the “PPAR activity (%) α” value is “IA”.

Take `Cc1ccc(-n2cc(CCC(=O)c3ccc(OC(C)(C)C(=O)O)c(C)c3)c(C(C)C)n2)nc1` [Example 3, 2-[4-[3-[3-Isopropyl-1-(5-methylpyridin-2-yl)-1H-pyrazol-4-yl]propionyl]-2-methylphenoxy]-2-methylpropionic acid]: the “PPAR activity (%) δ” value at hPPAR δ (LBD) (test compound 10^−6 M) is recorded as 72%. On hPPAR γ (LBD) (test compound 10^−6 M), the “PPAR activity (%) γ” value is 30%. In addition, on hPPAR α (LBD) (test compound 10^−6 M), the “PPAR activity (%) α” value came to 131%.

Turning to `Cc1cc(C(=O)CCc2cc(-c3ccc(C(F)(F)F)cc3)nn2C(C)C)ccc1OC(C)(C)C(=O)O` [Example 5, 2-[4-[3-[1-Isopropyl-3-(4-trifluoromethylphenyl)-1H-pyrazol-5-yl]propionyl]-2-methylphenoxy]-2-methylpropionic acid], at hPPAR δ (LBD) (setting [1]), the “PPAR activity (%) δ” value came to 93%. On hPPAR γ (LBD) (test compound 10^−6 M), the “PPAR activity (%) γ” value came out at 15%. Also, on hPPAR α (LBD) (test compound 10^−6 M), the “PPAR activity (%) α” value is recorded as 109%.

By melting point is commonly meant the temperature of the solid-liquid transition. `Cc1cc(C(=O)CCc2cc(-c3ccc(C(F)(F)F)cc3)nn2C(C)C)ccc1OCC(=O)O` [Example 6, [4-[3-[1-Isopropyl-3-(4-trifluoromethylphenyl)-1H-pyrazol-5-yl]propionyl]-2-methylphenoxy]acetic acid] gave a melting point of 160 to 163 °C. Further, the “PPAR activity (%) δ” value on hPPAR δ (LBD) (test compound 10^−6 M) is given as 86%. Moreover, the “PPAR activity (%) γ” value at hPPAR γ (LBD) (test compound 10^−6 M) is “IA”. Also, the “PPAR activity (%) α” value at hPPAR α (LBD) (test compound 10^−6 M) is listed as “IA”.

On to `C=C(CCc1cc(-c2ccc(C(F)(F)F)cc2)nn1C(C)C)c1ccc(OC(C)(C)C(=O)O)c(C)c1` [Example 7, 2-[4-[1-[2-[1-Isopropyl-3-(4-trifluoromethylphenyl)-1H-pyrazol-5-yl]ethyl]vinyl]-2-methylphenoxy]-2-methylpropionic acid], for which the “PPAR activity (%) δ” value on hPPAR δ (LBD) (test compound 10^−6 M) came out at 72%. Also, the “PPAR activity (%) γ” value at hPPAR γ (LBD) (test compound 10^−6 M) was found to be 38%. Further, the “PPAR activity (%) α” value at hPPAR α (LBD) (test compound 10^−6 M) came to 84%.

As for `Cc1cc(C(C)CCc2cc(-c3ccc(C(F)(F)F)cc3)nn2C(C)C)ccc1OC(C)(C)C(=O)O` (stereo not shown) [Example 8, 2-[4-[3-[1-Isopropyl-3-(4-trifluoromethylphenyl)-1H-pyrazol-5-yl]-1-methylpropyl]-2-methylphenoxy]-2-methylpropionic acid], the “PPAR activity (%) δ” value on hPPAR δ (LBD) (setting [1]) came out at 45%. The “PPAR activity (%) γ” value at hPPAR γ (LBD) (test compound 10^−6 M) is listed as 61%. For the same molecule, the “PPAR activity (%) α” value on hPPAR α (LBD) (setting [2]) is listed as 89%.

Take `Cc1cc(C(=O)CCc2cc(-c3ccc(C(F)(F)F)cc3)nn2C(C)C)ccc1OC(C)C(=O)O` (stereo not shown) [Example 9, 2-[4-[3-[1-Isopropyl-3-(4-trifluoromethylphenyl)-1H-pyrazol-5-yl]propionyl]-2-methylphenoxy]propionic acid]: the “PPAR activity (%) δ” value at hPPAR δ (LBD) (test compound 10^−6 M) came out at 59%. The “PPAR activity (%) γ” value at hPPAR γ (LBD) (test compound 10^−6 M) stood at 29%. The “PPAR activity (%) α” value at hPPAR α (LBD) (test compound 10^−6 M) came out at 73%.

Consider `CCCCCCn1nc(-c2ccc(C(F)(F)F)cc2)cc1CCC(=O)c1ccc(OC(C)(C)C(=O)O)c(C)c1` [Example 10, 2-[4-[3-[1-Hexyl-3-(4-trifluoromethylphenyl)-1H-pyrazol-5-yl]propionyl]-2-methylphenoxy]-2-methylpropionic acid], for which the “PPAR activity (%) δ” value at hPPAR δ (LBD) (setting [1]) is listed as 53%. The “PPAR activity (%) γ” value at hPPAR γ (LBD) (test compound 10^−6 M) stood at 54%. Also, the “PPAR activity (%) α” value on hPPAR α (LBD) (setting [2]) was found to be 77%.

As for `Cc1cc(C(=O)CCc2sc(-c3ccc(C(F)(F)F)cc3)cc2C)ccc1OC(C)(C)C(=O)O` [Example 12, 2-Methyl-2-[2-methyl-4-[3-[3-methyl-5-(4-trifluoromethylphenyl)thiophen-2-yl]propionyl]phenoxy]-propionic acid], the “PPAR activity (%) δ” value on hPPAR δ (LBD) (test compound 10^−6 M) is reported as 94%. Further, the “PPAR activity (%) γ” value on hPPAR γ (LBD) (test compound 10^−6 M) was found to be 29%. Moreover, the “PPAR activity (%) α” value on hPPAR α (LBD) (test compound 10^−6 M) was 51%.

Turning to `Cc1cc(C(=O)CCc2sc(-c3ccc(C(F)(F)F)cc3)cc2C)ccc1OCC(=O)O` [Example 13, [2-Methyl-4-[3-[3-methyl-5-(4-trifluoromethylphenyl)thiophen-2-yl]propionyl]phenoxy]acetic acid], the “PPAR activity (%) δ” value on hPPAR δ (LBD) (test compound 10^−6 M) worked out at 82%. Further, the “PPAR activity (%) γ” value at hPPAR γ (LBD) (test compound 10^−6 M) is “IA”. The “PPAR activity (%) α” value on hPPAR α (LBD) (test compound 10^−6 M) is “IA”.

`CCCCCCn1nc(-c2ccc(C)cc2)cc1CCC(=O)c1ccc(OC(C)(C)C(=O)O)c(C)c1` [Example 14, 2-[4-[3-[1-Hexyl-3-(4-methylphenyl)-1H-pyrazol-5-yl]propionyl]-2-methylphenoxy]-2-methylpropionic acid]: the “PPAR activity (%) δ” value at hPPAR δ (LBD) (setting [3]) was found to be 94%. Besides, the “PPAR activity (%) γ” value on hPPAR γ (LBD) (setting [3]) turned out to be 48%. The “PPAR activity (%) α” value at hPPAR α (LBD) (setting [3]) came out at 123%.

For the molecule `Cc1cc(C(=O)CCc2sc(-c3ccc(C(F)(F)F)cc3)cc2C(C)C)ccc1OC(C)(C)C(=O)O` [Example 15, 2-[4-[3-[3-Isopropyl-5-(4-trifluoromethylphenyl)thiophen-2-yl]propionyl]-2-methylphenoxy]-2-methylpropionic acid], the “PPAR activity (%) δ” value on hPPAR δ (LBD) (setting [3]) was 85%. On hPPAR γ (LBD) (setting [3]), the “PPAR activity (%) γ” value is 11%. The “PPAR activity (%) α” value on hPPAR α (LBD) (setting [3]) is reported as 99%.

In the case of `CCCCCCc1cc(-c2ccc(C)cc2)sc1CCC(=O)c1ccc(OC(C)(C)C(=O)O)c(C)c1` [Example 17, 2-[4-[3-[3-Hexyl-5-(4-methylphenyl)thiophen-2-yl]propionyl]-2-methylphenoxy]-2-methylpropionic acid], the “PPAR activity (%) δ” value on hPPAR δ (LBD) (setting [3]) turned out to be 76%. In addition, the “PPAR activity (%) γ” value on hPPAR γ (LBD) (setting [3]) is given as 35%. Further, at hPPAR α (LBD) (setting [3]), the “PPAR activity (%) α” value amounted to 109%.

The values are drawn from US20090240058A1, “Activator for Peroxisome Proliferator-Activating Receptor Delta” (priority 2005, published 2009).
